# Experimental data as given in PubChem BioAssay AID1996.
# Conditions: buffer; pH 7.4; 200.0 µM
row,Compound,solubility kinetic
1,CC(=O)Nc1ccc(S(=O)(=O)NC(C)(C#N)C2CC2)cc1 (stereo not given),> 46.1 µg/mL
2,Cc1ccc(OCC(=O)NCCNC(=O)c2ccncc2)cc1,45.1 µg/mL
3,COc1ccc(CCOC(=O)c2ccc(NC(=O)CC#N)cc2)cc1,4.1 µg/mL
4,COC(=O)c1ccc(CNC(=O)COC(=O)/C=C/c2ccc(OC)c(OC)c2)cc1,6.6 µg/mL
5,O=C(NN1CCOCC1)c1ccccc1Br,> 42.8 µg/mL
6,Cc1ccc(S(=O)(=O)N2CC(=O)NC(=O)C2)cc1,> 40.2 µg/mL
7,CCc1nc2ccccc2c(C(=O)Nc2ccc(F)cc2)c1C,< 0.3 µg/mL
8,CC(C)Nc1nc(Cl)nc(Nc2ccccc2)n1,27.3 µg/mL
9,CCNC(=O)NC(=O)C(C)OC(=O)c1ccc(SC)cc1OC (stereo not given),> 51.1 µg/mL
10,O=CC(Br)P(=O)(N1CCOCC1)N1CCOCC1 (stereo not given),> 51.2 µg/mL
11,COc1ccc(S(=O)(=O)/C(C#N)=C/Nc2ccccc2F)cc1,3.3 µg/mL
12,CC1CC(=O)Nc2cc([N+](=O)[O-])ccc2N1 (stereo not given),> 33.2 µg/mL
13,CN(C)c1ccc(C=NCCc2ccc(S(N)(=O)=O)cc2)cc1,37.1 µg/mL
14,CC(=O)N1CCc2ccc(S(=O)(=O)Nc3ccccc3Cl)cc21,39.2 µg/mL
15,CN/C=C(/Cl)P(=O)(OC(C)C)OC(C)C,> 38.4 µg/mL
16,CCN(CC)S(=O)(=O)c1cccc(NC2=NCC(C)S2)c1 (stereo not given),> 49.1 µg/mL
17,CCn1c2ccccc2c2cc(NC(=O)C(=O)N3CCOCC3)ccc21,10.1 µg/mL
18,Cc1cnc(NC(=O)[C@H](C)N2C(=O)C3CCCCC3C2=O)s1 (stereo not given in full),> 48.2 µg/mL
19,C[C@@H](C(=O)OCC(=O)c1ccc(F)c(F)c1)N1C(=O)C2CCCCC2C1=O (stereo not given in full),> 56.9 µg/mL
20,Cc1cc(C)n(-c2c(C)[nH]c3ccccc23)n1,> 33.8 µg/mL
21,C=CCNC(=O)COC(=O)c1cccnc1Nc1ccccc1F,17.9 µg/mL
22,Cc1ccc(C(=O)NC(=S)Nc2ccc(CN3CCOCC3)cc2)cc1,2.7 µg/mL

row,Compound,solubility kinetic
1,CCOC(=O)COc1c(Cl)cc(/C=C2\N=C(C)OC2=O)cc1OC,46.5 µg/mL
2,CC1(C2CC(C(F)(F)F)n3nc(C(=O)O)cc3N2)CC1 (stereo not given),> 43.4 µg/mL
3,COc1ccc(-n2c(=S)[nH]c3sc4c(c3c2=O)CCc2ccccc2-4)cc1,1.4 µg/mL
4,O=C(CSCc1cccc(F)c1)NCc1ccccc1,35.2 µg/mL
5,CC(=O)Nc1cccc(-c2csc(N)n2)c1,> 35 µg/mL
6,CSCCC(NS(=O)(=O)/C=C/c1ccccc1)C(=O)O (stereo not given),> 47.3 µg/mL
7,Cc1ccc(NC2=NC(c3ccc(F)cc3)n3c(nc(C)cc3=O)N2)cc1 (stereo not given),5 µg/mL
8,O=C(O)CCNC(=S)Nc1cccc(F)c1,> 36.3 µg/mL
9,N#CCc1ccc(Oc2ccc([N+](=O)[O-])cn2)cc1,35.6 µg/mL
10,Cc1cc(-n2c(C)cc(C(=O)COc3ccc(Cl)cc3C(N)=O)c2C)no1,2.7 µg/mL
11,Fc1ccc(NC(=S)N2CCc3ccccc32)cc1,3.1 µg/mL
12,COC(=O)c1cccc(NC(=S)N2CCN(C)CC2)c1,41.9 µg/mL
13,Cc1ccccc1C(=O)OC1CCCN(C)C1.Cl (stereo not given),39.9 µg/mL
14,Cc1ccc(C(=O)NCc2cccnc2)o1,> 32.4 µg/mL
15,N#Cc1c(F)cccc1NCCCn1ccnc1,30.7 µg/mL
16,COc1ccc(N(CC(=O)N2CCCC2)S(C)(=O)=O)cc1,34.5 µg/mL
17,Cc1ccc(NC(=S)NC(=O)c2cncc(Br)c2)cc1Cl,2.4 µg/mL
18,O=[N+]([O-])c1ccc(S(=O)(=O)NCC2CC3CCC2C3)cc1 (stereo not given),5.5 µg/mL
19,Cc1csc(=O)n1CC(=O)Nc1ccc(Cl)cc1F,9 µg/mL
20,C=CCN1C(=O)C(=O)N(CC(=O)NCC(=O)Nc2ccc(F)c(F)c2F)C1=O,> 59.7 µg/mL
21,N#Cc1cccc(Nc2c3c(nc4ccccc24)CCC3)c1,8.4 µg/mL

# Second part, the molecule after the results:
row,solubility kinetic,Compound
1,30.3 µg/mL,Clc1ccccc1N1CCN(Cc2ccco2)CC1
2,> 41 µg/mL,O=C(/C=C/c1ccc(F)cc1)NCCCn1ccnc1
3,> 47 µg/mL,CC(C)N(Cc1ccccc1)C(=O)COC(=O)c1cnccn1
4,> 35.1 µg/mL,Cc1ccc(NC(=O)CN2CCOCC2)cc1
5,32.1 µg/mL,Cc1cc(=O)[nH]c(SCC(=O)NC2CCCc3ccccc32)n1 (stereo not given)
6,26.9 µg/mL,Cc1cccc2cc(-c3nc4ccc(C(=O)O)cc4[nH]3)c(=O)oc12
7,27.3 µg/mL,CC(=O)c1c(O)c2ccccc2n(C)c1=O
8,16.3 µg/mL,O=C(C1COc2ccccc2O1)N1CCN(c2ccc(C(F)(F)F)cn2)CC1 (stereo not given)
9,24.6 µg/mL,Cc1cc(C=O)c(C)n1-c1ccc2c(c1)OCO2
10,0.9 µg/mL,O=C(/C=C/c1ccccc1)Nc1nc(-c2ccncc2)cs1
11,42 µg/mL,O=C(NCC(O)c1ccc([N+](=O)[O-])cc1)Nc1ccccc1 (stereo not given)
12,42.8 µg/mL,Cc1ccc2oc(C(=O)NCC3CCOCC3)c(C)c2c1
13,> 48.4 µg/mL,CN1C(=O)Cc2cc(S(=O)(=O)NCc3cccs3)ccc21
14,> 49.1 µg/mL,CC(C)=CCN1CCN(Cc2c[nH]c3ccccc23)CC1CCO (stereo not given)
15,43.3 µg/mL,CN1CCN(C(=S)c2ccc(-c3cccc([N+](=O)[O-])c3)o2)CC1
16,38.1 µg/mL,O=C(NCc1ccccc1)c1ccc2c(c1)C(=O)N(Cc1cccnc1)C2=O
17,4.5 µg/mL,O/N=C1\CCCc2ccc3ccccc3c21
18,> 64.6 µg/mL,O=C(CN1C(=O)NC(Cc2c[nH]c3ccccc23)C1=O)Nc1ccccc1C(F)(F)F (stereo not given)
19,31.6 µg/mL,Cc1ccccc1Nc1ncc(C#N)c(N)n1
20,15 µg/mL,COc1ccc(O)c(/C=N/c2nc3ccccc3n2C)c1
21,8.2 µg/mL,O=c1c(/C=N/O)coc2ccc(Cl)cc12

row,solubility kinetic,Compound
1,21.1 µg/mL,CCOc1ccc(-c2c(=O)n(OCC)c3ccccc3[n+]2[O-])cc1
2,14.6 µg/mL,COc1ccc(OC)c2c(=O)cc(C(=O)O)[nH]c12
3,> 56.3 µg/mL,CCOc1ccc(S(=O)(=O)N2CCN(C(=O)c3ccncc3)CC2)cc1
4,> 50.8 µg/mL,O=C1CN(C(=O)COC(=O)CCc2ccccc2)c2ccccc2N1
5,3.2 µg/mL,O=C(NC1CCCc2ccccc21)c1ccc([N+](=O)[O-])cc1 (stereo not given)
6,31.7 µg/mL,CC(C)Cc1ccc(S(=O)(=O)Nc2ccccn2)cc1
7,34.7 µg/mL,O=C1c2ccccc2CN1C(CO)c1ccccc1 (stereo not given)
8,1.9 µg/mL,CCC(C)NC(=O)C1c2ccccc2Oc2ccccc21 (stereo not given)
9,> 37.6 µg/mL,CCOc1ccc(NC(=S)N2CCCC2)cc1
10,39.1 µg/mL,CCOC(=O)C1=C(C)N=C2SCCC(=O)N2[C@@H]1c1cccs1
11,47.3 µg/mL,CCOc1cc(C(=O)Nc2cccnc2)cc(OCC)c1OCC
12,> 47.4 µg/mL,COC(OC)C1Nc2ccccc2C(=O)N1c1ccc(F)cc1 (stereo not given)
13,14 µg/mL,CCOC(=O)CN1C(=O)C(=O)N(Cc2c(C)cc(C)cc2C)C1=O
14,20.5 µg/mL,Cc1[nH]c(=O)[nH]c(=O)c1Sc1ccccc1[N+](=O)[O-]
15,> 41.6 µg/mL,CN(C)c1ccncc1C(=O)Nc1ccc(F)cc1F
16,> 73.4 µg/mL,COc1ccc(CC(=O)Nc2cc(S(=O)(=O)N3CCOCC3)ccc2N2CCCC2)cc1OC
17,> 44.2 µg/mL,CC(C)CC(=O)Nc1ccc(-c2cn3cccnc3n2)cc1
18,0.3 µg/mL,COC(=O)CSc1nc(NCc2ccccc2)nc(N(C)C)n1
19,57.2 µg/mL,CCOC(=O)N1CCN(C(=O)COC(=O)c2cc(Cl)cc(Cl)c2)CC1
20,2.4 µg/mL,O=C(Cc1ccccc1)Nc1ccc(NC(=O)c2ccco2)cc1Cl
21,43.8 µg/mL,Cc1ccc(SCC(=O)N2CCN(c3ccccn3)CC2)cc1
